Results on 20 molecules are retold here after ChEMBL document CHEMBL3351224 (ACS Med Chem Lett, 2014).

A short description of data set [1]: AUC in rat at 30 mg/kg, po. It counts as ADME, organism-based. Details: dose 30 mg/kg, route oral. The following applies: plasma.
Data set [2] can be described thus: Oral bioavailability in rat at 30 mg/kg. It counts as ADME, organism-based. The note with it: in vivo.
Data set [3] is described as follows: Clearance in rat at 1 mg/kg, iv. The data set is classed as ADME, organism-based. Details: dose 1 mg/kg, route intravenous. The note with it: in vivo.
A short description of data set [4]: Half life in rat at 1 mg/kg, iv. The data set is classed as ADME, organism-based. Details: dose 1 mg/kg, route intravenous. The following applies: in vivo.
The target in data set [5] is T1, Cysteinyl leukotriene receptor 1 (Homo sapiens, UniProt Q9Y271).
T1 sequence (Q9Y271 whole entry): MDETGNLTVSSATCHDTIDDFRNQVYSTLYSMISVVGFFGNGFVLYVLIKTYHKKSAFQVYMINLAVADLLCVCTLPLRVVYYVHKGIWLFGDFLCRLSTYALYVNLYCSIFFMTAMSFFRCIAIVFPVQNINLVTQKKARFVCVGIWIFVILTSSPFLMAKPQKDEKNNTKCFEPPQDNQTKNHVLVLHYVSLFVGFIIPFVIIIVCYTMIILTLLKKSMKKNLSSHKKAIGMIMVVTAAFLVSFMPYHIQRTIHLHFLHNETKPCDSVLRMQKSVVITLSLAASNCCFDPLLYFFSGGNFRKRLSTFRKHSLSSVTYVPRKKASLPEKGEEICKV
As to the kind of experiment: Antagonist activity at human CysLT1 receptor expressed in CHO cells assessed as inhibition of LTD4-inudced intracellular calcium influx preincubated for 30 mins before LTD4 addition by Fura2-AM assay. The data set is classed as functional, cell-based.

In data set [6] the target is T2, Cysteinyl leukotriene receptor 2 (Homo sapiens, UniProt Q9NS75).
T2 sequence (Q9NS75 whole entry): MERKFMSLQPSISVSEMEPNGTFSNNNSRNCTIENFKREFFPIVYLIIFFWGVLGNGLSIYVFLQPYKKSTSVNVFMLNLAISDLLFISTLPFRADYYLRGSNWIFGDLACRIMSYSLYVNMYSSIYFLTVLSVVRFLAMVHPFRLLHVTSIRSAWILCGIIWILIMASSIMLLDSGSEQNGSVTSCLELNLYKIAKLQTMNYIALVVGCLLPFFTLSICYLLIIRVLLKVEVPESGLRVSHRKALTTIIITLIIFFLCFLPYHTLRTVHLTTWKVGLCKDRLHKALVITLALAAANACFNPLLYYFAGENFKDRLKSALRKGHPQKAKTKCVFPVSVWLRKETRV
The data set is described as follows: Antagonist activity at human CysLT2 receptor expressed in HEK293 cells assessed as inhibition of LTD4-inudced intracellular calcium influx preincubated for 30 mins before LTD4 addition by Fura2-AM assay. It counts as functional, cell-based.

Data set [7] has as its target T3, Cysteinyl leukotriene receptor 2 (Homo sapiens) (UniProt Q9NS75).
T3 sequence (whole entry): T2 sequence (Q9NS75 whole entry)
The data set is described as follows: Antagonist activity at human CysLT2 receptor expressed in HEK293 cells assessed as inhibition of LTD4-inudced intracellular calcium influx preincubated at 10 uM for 30 mins before LTD4 addition by Fura2-AM assay. The data set is classed as functional, cell-based.

Each structure is given as a SMILES string.

Consider `O=C(O)CCCN1CC(C(=O)O)Oc2c(NC(=O)c3ccc(OCCCCc4ccccc4)cc3)cccc21` (configuration not stated), for which the AUC in data set [1] amounted to 1600 ng·h/mL. In addition, in data set [2], the bioavailability amounted to 1.5%. Also, in data set [3], the clearance stood at 4.7 mL/min/kg. For the same molecule, in data set [4], the half-life was 3.4 h.

Take `O=C(O)CCC(=O)N1CC(C(=O)O)Oc2c(NC(=O)c3ccc(OCCCCc4ccccc4)cc3)cccc21` (configuration not stated): the IC50 amounted to 1.4 nM in data set [5] and 890 nM in data set [6].

Regarding `O=C(O)CCCCCN1CC(C(=O)O)Oc2c(NC(=O)c3ccc(OCCCCc4ccccc4)cc3)cccc21` (configuration not stated), the IC50 in data set [5] is 130 nM; in data set [6], 290 nM.

For the molecule `O=C(O)CCCN1CC(C(=O)O)Oc2c(NC(=O)c3ccc(OCCCCOc4ccccc4)cc3)cccc21` (configuration not stated), the IC50 in data set [5] amounted to 32 nM; in data set [6] it was 17 nM.

With `O=C(O)CCCCN1CC(C(=O)O)Oc2c(NC(=O)c3ccc(OCCCCc4ccccc4)cc3)cccc21` (configuration not stated), the IC50 in data set [5] is 44 nM; in data set [6], 170 nM.

On to `CCC(=O)N1CC(C(=O)O)Oc2c(NC(=O)c3ccc(OCCCCc4ccccc4)cc3)cccc21` (configuration not stated), for which the IC50 in data set [5] was found to be 150 nM; in data set [6], 5200 nM.

With `O=C(O)CCCCC(=O)N1CC(C(=O)O)Oc2c(NC(=O)c3ccc(OCCCCc4ccccc4)cc3)cccc21` (configuration not stated), the IC50 in data set [5] is 12 nM; in data set [6], 890 nM.

Take `O=C(O)CCCN1CC(C(=O)O)Oc2c(NC(=O)c3ccc(OCCCc4ccccc4)cc3)cccc21` (configuration not stated): the IC50 was 1300 nM in data set [5] and 68 nM in data set [6].

For `CC(=O)N1CC(C(=O)O)Oc2c(NC(=O)c3ccc(OCCCCc4ccccc4)cc3)cccc21` (configuration not stated), the IC50 in data set [5] amounted to 13 nM; in data set [6] it was 3600 nM.

Consider `CCCCC/C=C\C\C=C/C=C/C=C/[C@@H](Sc1ccc(C(=O)O)cc1)[C@@H](O)CCCC(=O)O`, for which the half-inhibitory concentration (IC50) in data set [5] was 440 nM; in data set [6], 300 nM.

`O=C(O)c1ccc(OCCCc2ccc(OCCCCOc3ccccc3)cc2)c(C(=O)NC2CCCC(C(=O)O)C2)c1` (configuration not stated): the values for the IC50 in data set [5] and in data set [6] were over 2500 nM and 53 nM, respectively.

As for `O=C(Nc1ccc2c(c1)NCC(C(=O)O)O2)c1ccc(OCCCCc2ccccc2)cc1` (configuration not stated), in data set [5], the IC50 came out at 840 nM. Further, in data set [7], the inhibition stood at 25%.

As for `O=C(Nc1cccc2c1OC(C(=O)O)CN2)c1ccc(OCCCCc2ccccc2)cc1` (configuration not stated), the IC50 turned out to be 54 nM in data set [5] and 4600 nM in data set [6].

Take `CCN(CC)C(=O)/C=C(\C)c1ccc2oc(C(=O)c3ccc(C#N)cc3)c(NC(=O)/C(C#N)=C(/C)O)c2c1`: the concentration for half-maximal inhibition (IC50) in data set [5] is 9700 nM; in data set [6], 7700 nM.

Regarding `O=C(O)CCCN1CC(C(=O)O)Oc2c(NC(=O)c3ccc(OCCCCCc4ccccc4)cc3)cccc21` (configuration not stated), the values for the IC50 in data set [5] and in data set [6] were 120 nM and 0.62 nM, respectively.

As to `O=C(O)CCCN1CC(C(=O)O)Oc2c(NC(=O)c3ccc(OCCCOc4ccccc4)cc3)cccc21` (configuration not stated), the IC50 is 290 nM in data set [5] and 16 nM in data set [6].

For `CCCC(=O)N1CC(C(=O)O)Oc2c(NC(=O)c3ccc(OCCCCc4ccccc4)cc3)cccc21` (configuration not stated), the IC50 in data set [5] was determined as 300 nM; in data set [6], 3700 nM.

As for `O=C(O)CCCC(=O)N1CC(C(=O)O)Oc2c(NC(=O)c3ccc(OCCCCc4ccccc4)cc3)cccc21` (configuration not stated), the IC50 was under 1 nM in data set [5] and 1800 nM in data set [6].

Turning to `O=C(O)CCCN1CC(C(=O)O)Oc2c(NC(=O)c3ccc(OCCOc4ccccc4)cc3)cccc21` (configuration not stated), the values for the IC50 in data set [5] and in data set [6] were 3000 nM and 1500 nM, respectively.

`O=C(Nc1ccc2c(c1)OC(C(=O)O)CN2)c1ccc(OCCCCc2ccccc2)cc1` (configuration not stated): the IC50 in data set [5] was 4600 nM. For the same molecule, in data set [7], the inhibition is 36%.
